Laboratory results reported in PubChem BioAssay (NCI).
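Here, GI50 denotes the concentration required for 50% inhibition of growth. At the TGI there is no net growth.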

Columns and labels:
Test in all cases: NCI anticancer screen, dose series, 384-well format
[1] = test system: OVCAR-4 ovarian
[2] = test system: TK-10 renal
[3] = test system: SK-OV-3 ovarian
[4] = test system: SNB-19 CNS
[5] = test system: SK-MEL-28 melanoma
[6] = test system: ACHN renal
[7] = test system: EKVX NSCLC
[8] = test system: T-47D breast
[9] = test system: SR leukemia
[10] = test system: MDA-MB-468 breast
[11] = test system: NCI/ADR-RES ovarian
[12] = test system: COLO 205 colon
[13] = test system: SF-539 CNS
[14] = test system: M14 melanoma
[15] = test system: OVCAR-8 ovarian
[16] = test system: UACC-257 melanoma
[17] = test system: HT29 colon
[18] = test system: A549 NSCLC
[19] = test system: SN12C renal
[20] = test system: RXF 393 renal
[21] = test system: MCF7 breast
[22] = test system: NCI-H522 lung
[23] = test system: UO-31 renal
[24] = test system: OVCAR-3 ovarian
[25] = test system: MDA-MB-231 breast
[26] = test system: MDA-MB-435 melanoma
[27] = test system: MOLT-4 leukemia
[28] = test system: NCI-H322M lung
[29] = test system: UACC-62 melanoma

## Cc1ccc(-c2cc(C(F)(F)F)nn2-c2ccc(S(N)(=O)=O)cc2)cc1
[1]
  TGI: 24.1 µM
[2]
  GI50: 16.7 µM
  TGI: 30.4 µM
[3]
  GI50: 17.1 µM
  TGI: 30.9 µM
[4]
  GI50: 16.6 µM
  TGI: 30.4 µM
[5]
  GI50: 17.6 µM
  TGI: 31.4 µM
[6]
  GI50: 15.1 µM
  TGI: 28.3 µM
[7]
  GI50: 14.2 µM
  TGI: 27.2 µM
[8]
  GI50: 11.4 µM
  TGI: 23.7 µM
[9]
  GI50: 29 µM
  TGI: 43.8 µM
[10]
  GI50: 13.6 µM
  TGI: 26.5 µM
[11]
  GI50: 15.7 µM
  TGI: 29.1 µM
[12]
  GI50: 16.2 µM
  TGI: 29.7 µM
[13]
  GI50: 16.7 µM
  TGI: 30.4 µM
[14]
  GI50: 19 µM
  TGI: 33.1 µM
[15]
  GI50: 15.6 µM
  TGI: 28.9 µM
[16]
  GI50: 16.6 µM
  TGI: 30.3 µM
[17]
  GI50: 16.1 µM
  TGI: 29.6 µM
[18]
  GI50: 14.4 µM
  TGI: 27.5 µM
[19]
  GI50: 15.2 µM
  TGI: 28.6 µM
[20]
  GI50: 14.4 µM
  TGI: 27.4 µM
[21]
  GI50: 14.2 µM
  TGI: 27.2 µM
[22]
  GI50: 13.6 µM
  TGI: 26.5 µM
[23]
  GI50: 14.7 µM
  TGI: 27.9 µM
[24]
  GI50: 14.3 µM
  TGI: 27.4 µM
[25]
  GI50: 15.7 µM
  TGI: 29.2 µM
[26]
  GI50: 19.3 µM
  TGI: 33.4 µM
[27]
  GI50: 9.05 µM
  TGI: 21.3 µM
[28]
  GI50: 15.9 µM
  TGI: 29.4 µM
[29]
  GI50: 18.4 µM
  TGI: 32.4 µM
